This passage reports % of inhibition, % activity and % of control results from ChEMBL document CHEMBL5465560, “Selectivity Literature for EUbOPEN Chemogenomic Library” (2024).

Assay [1] addresses Protein-tyrosine kinase 6 (Homo sapiens, UniProt Q13882). Kind of assay: Selectivity interaction (SelectScreen profiling (Invitrogen)) EUB0000607a PTK6. The conditions noted are these: at 2 µM.
Assay [2] has as its target T1, Histone-lysine N-methyltransferase SETD7 (Homo sapiens) (UniProt Q8WTS6).
T1 sequence (whole entry): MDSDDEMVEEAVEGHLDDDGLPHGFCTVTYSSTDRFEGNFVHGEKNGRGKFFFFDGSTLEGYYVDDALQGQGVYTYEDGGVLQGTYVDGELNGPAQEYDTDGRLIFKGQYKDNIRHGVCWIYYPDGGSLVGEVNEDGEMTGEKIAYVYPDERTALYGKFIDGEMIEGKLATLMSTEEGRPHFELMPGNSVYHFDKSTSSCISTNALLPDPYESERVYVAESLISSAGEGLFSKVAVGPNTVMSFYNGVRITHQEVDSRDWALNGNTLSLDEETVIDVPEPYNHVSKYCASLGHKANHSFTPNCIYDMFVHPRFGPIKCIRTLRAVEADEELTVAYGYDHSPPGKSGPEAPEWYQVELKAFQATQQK
The conditions noted are these: at 10 µM.

For assay [3], the target named is TGF-beta receptor type-2 (Homo sapiens) (UniProt P37173). Briefly: Selectivity interaction (KinomeScan (DiscoverX)) EUB0000655a TGFBR2. The settings on record: at 10 µM.
The target of assay [4] is Ribosomal protein S6 kinase alpha-6 (Homo sapiens, UniProt Q9UK32). Kind of assay: Selectivity interaction (KinomeScan (DiscoverX)) EUB0001619a RPS6KA6. The settings on record: at 1 µM.
In assay [5] the target is Protein kinase C alpha type (Homo sapiens, UniProt P17252). Briefly: Selectivity interaction (ActivX KiNativ screen (ex vivo kinase selectivity in human PBMCs)) EUB0001619a PRKCA. Type of assay: cell-based. The settings on record: PBMC, at 1 µM.
Assay [6] concerns the target Myosin light chain kinase, smooth muscle (Homo sapiens, UniProt Q15746). Briefly: Selectivity interaction (Kinase panel (literature)) EUB0001199aCl MYLK. The settings on record: at 1 µM.
In assay [7] the target is Dual specificity mitogen-activated protein kinase kinase 1 (Homo sapiens, UniProt Q02750). Kind of assay: Selectivity interaction (ActivX KiNativ screen (kinase selectivity in THP-1 cell lysates)) EUB0000639a MAP2K1. Type of assay: subcellular. The settings on record: lysate, at 0.01 µM.
The target in assay [8] is Phosphatidylinositol 3-kinase catalytic subunit type 3 (Homo sapiens, UniProt Q8NEB9). Kind of assay: Selectivity interaction (ActivX KiNativ screen (kinase selectivity in THP-1 cell lysates)) EUB0000639a PIK3C3. Type of assay: subcellular. The conditions noted are these: lysate, at 0.04 µM.
The target of assay [9] is Tyrosine-protein kinase FRK (Homo sapiens) (UniProt P42685). The conditions noted are these: at 10 µM.
Chain of Tyrosine-protein kinase FRK (Homo sapiens) (P42685 whole entry): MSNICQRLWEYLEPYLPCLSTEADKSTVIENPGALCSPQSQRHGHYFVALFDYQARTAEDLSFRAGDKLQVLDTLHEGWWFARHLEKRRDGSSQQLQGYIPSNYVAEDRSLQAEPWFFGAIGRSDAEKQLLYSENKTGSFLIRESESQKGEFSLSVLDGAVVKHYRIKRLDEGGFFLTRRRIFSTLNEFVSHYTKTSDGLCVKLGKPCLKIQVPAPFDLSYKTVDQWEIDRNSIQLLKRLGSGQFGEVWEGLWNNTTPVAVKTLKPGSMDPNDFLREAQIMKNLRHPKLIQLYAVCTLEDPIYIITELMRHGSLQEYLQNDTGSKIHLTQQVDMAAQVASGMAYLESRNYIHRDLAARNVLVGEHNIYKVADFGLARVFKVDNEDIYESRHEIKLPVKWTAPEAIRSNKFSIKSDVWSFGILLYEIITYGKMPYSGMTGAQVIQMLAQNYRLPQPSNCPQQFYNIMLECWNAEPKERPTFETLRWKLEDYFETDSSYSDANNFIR
The target of assay [10] is Tyrosine-protein kinase Fes/Fps (Homo sapiens) (UniProt P07332). Kind of assay: Selectivity interaction (KinomeScan (DiscoverX)) EUB0000092b FES. The settings on record: at 10 µM.
Chain of Tyrosine-protein kinase Fes/Fps (Homo sapiens) (P07332 whole entry): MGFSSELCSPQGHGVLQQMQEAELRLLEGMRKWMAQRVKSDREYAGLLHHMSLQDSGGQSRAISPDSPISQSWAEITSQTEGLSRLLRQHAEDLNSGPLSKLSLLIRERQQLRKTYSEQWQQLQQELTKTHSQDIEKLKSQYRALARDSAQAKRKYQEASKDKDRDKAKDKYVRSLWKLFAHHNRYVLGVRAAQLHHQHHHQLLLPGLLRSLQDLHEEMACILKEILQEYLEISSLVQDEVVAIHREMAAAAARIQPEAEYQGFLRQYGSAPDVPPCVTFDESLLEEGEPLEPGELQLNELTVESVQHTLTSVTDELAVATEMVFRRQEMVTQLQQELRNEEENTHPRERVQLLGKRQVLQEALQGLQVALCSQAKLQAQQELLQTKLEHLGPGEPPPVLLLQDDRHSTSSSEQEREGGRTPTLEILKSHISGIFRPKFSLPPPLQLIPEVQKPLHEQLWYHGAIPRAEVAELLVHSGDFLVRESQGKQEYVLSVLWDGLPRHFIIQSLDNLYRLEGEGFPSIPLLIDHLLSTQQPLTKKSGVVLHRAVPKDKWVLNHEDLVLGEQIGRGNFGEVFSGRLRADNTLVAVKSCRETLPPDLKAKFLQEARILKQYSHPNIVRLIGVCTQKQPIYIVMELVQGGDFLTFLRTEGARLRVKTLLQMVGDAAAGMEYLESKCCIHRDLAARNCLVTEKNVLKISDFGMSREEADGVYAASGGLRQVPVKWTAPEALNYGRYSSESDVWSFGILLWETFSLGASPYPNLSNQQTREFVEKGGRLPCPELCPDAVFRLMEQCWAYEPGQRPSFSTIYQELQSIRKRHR
Assay [11] has as its target Protein kinase C eta type (Homo sapiens) (UniProt P24723). Kind of assay: Selectivity interaction (KinomeScan (DiscoverX)) EUB0000618a PRKCH. The conditions noted are these: at 10 µM.
The next assay concerns the target SRSF protein kinase 1 (Homo sapiens, UniProt Q96SB4). Kind of assay: Selectivity interaction (Upstate Kinase Profiler service (Millipore)) EUB0000056c SRPK1. The conditions noted are these: at 1 µM.
Assay [12] deals with T2, Serine/threonine-protein kinase TAO1 (Homo sapiens) (UniProt Q7L7X3).
T2 sequence (whole entry): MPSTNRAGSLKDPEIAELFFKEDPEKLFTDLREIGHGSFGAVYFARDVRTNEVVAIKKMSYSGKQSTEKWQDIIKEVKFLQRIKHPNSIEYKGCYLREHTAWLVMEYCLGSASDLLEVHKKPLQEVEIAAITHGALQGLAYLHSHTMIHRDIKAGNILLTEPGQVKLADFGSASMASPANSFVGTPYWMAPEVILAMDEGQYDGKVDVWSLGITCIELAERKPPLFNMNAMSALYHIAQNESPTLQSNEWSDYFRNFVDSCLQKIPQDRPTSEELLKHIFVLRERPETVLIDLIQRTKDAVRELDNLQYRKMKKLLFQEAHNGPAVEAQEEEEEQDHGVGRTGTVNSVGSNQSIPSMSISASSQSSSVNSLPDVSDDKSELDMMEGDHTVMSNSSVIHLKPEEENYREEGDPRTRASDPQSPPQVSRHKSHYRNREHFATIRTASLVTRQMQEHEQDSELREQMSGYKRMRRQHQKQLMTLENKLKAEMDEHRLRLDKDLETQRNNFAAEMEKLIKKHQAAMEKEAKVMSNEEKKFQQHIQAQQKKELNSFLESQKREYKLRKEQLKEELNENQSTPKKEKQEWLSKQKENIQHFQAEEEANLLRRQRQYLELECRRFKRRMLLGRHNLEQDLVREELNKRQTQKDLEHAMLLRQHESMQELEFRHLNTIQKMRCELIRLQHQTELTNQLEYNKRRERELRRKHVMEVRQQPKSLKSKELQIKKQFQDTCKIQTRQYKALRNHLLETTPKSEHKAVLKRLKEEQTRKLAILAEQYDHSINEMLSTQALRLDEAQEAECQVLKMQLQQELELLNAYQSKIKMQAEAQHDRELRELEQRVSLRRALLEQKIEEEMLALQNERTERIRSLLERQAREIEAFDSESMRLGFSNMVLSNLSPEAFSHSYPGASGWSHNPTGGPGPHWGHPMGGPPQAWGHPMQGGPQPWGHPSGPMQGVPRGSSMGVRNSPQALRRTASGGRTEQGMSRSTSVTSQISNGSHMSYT
Kind of assay: Selectivity interaction (KinomeScan (DiscoverX)) EUB0000595a TAOK1. The conditions noted are these: at 10 µM.

For assay [13], the target named is T3, Hormonally up-regulated neu tumor-associated kinase (Homo sapiens) (UniProt P57058).
T3 sequence (whole entry): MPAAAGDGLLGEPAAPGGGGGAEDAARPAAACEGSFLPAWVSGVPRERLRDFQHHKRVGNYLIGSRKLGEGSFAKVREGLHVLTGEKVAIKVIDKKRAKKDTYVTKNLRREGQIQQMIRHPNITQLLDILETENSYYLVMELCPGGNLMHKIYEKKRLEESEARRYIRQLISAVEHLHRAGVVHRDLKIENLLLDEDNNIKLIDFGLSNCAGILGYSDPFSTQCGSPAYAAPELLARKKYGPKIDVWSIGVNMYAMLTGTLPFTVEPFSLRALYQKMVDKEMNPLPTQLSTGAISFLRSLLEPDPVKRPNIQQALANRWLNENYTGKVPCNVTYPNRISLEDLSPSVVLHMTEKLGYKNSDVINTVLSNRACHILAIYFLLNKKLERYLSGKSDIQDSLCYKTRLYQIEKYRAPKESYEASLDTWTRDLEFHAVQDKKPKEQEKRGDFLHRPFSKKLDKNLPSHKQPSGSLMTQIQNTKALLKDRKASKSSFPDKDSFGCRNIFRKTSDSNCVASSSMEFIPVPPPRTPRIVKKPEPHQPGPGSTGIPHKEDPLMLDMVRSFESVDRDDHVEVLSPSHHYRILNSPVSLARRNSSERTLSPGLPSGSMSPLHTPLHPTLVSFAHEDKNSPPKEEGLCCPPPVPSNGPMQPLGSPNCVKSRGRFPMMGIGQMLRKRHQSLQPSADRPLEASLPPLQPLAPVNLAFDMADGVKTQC
Briefly: Selectivity interaction (KinomeScan (DiscoverX)) EUB0000595a HUNK. The conditions noted are these: at 10 µM.

Chain of SRSF protein kinase 1 (Q96SB4 whole entry): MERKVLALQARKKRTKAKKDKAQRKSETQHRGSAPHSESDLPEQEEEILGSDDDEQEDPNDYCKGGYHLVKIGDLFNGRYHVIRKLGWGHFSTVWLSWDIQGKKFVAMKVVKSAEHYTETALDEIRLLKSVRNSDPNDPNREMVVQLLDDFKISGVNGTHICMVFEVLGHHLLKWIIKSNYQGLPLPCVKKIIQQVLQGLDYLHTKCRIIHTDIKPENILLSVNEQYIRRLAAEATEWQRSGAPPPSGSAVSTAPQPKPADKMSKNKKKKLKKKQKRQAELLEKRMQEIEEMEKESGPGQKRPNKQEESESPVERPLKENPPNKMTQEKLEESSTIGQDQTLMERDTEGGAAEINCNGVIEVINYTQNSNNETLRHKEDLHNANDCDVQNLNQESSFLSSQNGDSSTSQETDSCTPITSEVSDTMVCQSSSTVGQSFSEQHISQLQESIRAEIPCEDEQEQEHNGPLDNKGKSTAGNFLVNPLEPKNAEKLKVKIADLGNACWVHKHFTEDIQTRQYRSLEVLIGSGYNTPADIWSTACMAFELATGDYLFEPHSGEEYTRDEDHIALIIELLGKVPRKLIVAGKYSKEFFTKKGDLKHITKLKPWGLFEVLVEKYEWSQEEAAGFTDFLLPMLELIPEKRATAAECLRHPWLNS
Chain of Myosin light chain kinase, smooth muscle (Q15746 whole entry): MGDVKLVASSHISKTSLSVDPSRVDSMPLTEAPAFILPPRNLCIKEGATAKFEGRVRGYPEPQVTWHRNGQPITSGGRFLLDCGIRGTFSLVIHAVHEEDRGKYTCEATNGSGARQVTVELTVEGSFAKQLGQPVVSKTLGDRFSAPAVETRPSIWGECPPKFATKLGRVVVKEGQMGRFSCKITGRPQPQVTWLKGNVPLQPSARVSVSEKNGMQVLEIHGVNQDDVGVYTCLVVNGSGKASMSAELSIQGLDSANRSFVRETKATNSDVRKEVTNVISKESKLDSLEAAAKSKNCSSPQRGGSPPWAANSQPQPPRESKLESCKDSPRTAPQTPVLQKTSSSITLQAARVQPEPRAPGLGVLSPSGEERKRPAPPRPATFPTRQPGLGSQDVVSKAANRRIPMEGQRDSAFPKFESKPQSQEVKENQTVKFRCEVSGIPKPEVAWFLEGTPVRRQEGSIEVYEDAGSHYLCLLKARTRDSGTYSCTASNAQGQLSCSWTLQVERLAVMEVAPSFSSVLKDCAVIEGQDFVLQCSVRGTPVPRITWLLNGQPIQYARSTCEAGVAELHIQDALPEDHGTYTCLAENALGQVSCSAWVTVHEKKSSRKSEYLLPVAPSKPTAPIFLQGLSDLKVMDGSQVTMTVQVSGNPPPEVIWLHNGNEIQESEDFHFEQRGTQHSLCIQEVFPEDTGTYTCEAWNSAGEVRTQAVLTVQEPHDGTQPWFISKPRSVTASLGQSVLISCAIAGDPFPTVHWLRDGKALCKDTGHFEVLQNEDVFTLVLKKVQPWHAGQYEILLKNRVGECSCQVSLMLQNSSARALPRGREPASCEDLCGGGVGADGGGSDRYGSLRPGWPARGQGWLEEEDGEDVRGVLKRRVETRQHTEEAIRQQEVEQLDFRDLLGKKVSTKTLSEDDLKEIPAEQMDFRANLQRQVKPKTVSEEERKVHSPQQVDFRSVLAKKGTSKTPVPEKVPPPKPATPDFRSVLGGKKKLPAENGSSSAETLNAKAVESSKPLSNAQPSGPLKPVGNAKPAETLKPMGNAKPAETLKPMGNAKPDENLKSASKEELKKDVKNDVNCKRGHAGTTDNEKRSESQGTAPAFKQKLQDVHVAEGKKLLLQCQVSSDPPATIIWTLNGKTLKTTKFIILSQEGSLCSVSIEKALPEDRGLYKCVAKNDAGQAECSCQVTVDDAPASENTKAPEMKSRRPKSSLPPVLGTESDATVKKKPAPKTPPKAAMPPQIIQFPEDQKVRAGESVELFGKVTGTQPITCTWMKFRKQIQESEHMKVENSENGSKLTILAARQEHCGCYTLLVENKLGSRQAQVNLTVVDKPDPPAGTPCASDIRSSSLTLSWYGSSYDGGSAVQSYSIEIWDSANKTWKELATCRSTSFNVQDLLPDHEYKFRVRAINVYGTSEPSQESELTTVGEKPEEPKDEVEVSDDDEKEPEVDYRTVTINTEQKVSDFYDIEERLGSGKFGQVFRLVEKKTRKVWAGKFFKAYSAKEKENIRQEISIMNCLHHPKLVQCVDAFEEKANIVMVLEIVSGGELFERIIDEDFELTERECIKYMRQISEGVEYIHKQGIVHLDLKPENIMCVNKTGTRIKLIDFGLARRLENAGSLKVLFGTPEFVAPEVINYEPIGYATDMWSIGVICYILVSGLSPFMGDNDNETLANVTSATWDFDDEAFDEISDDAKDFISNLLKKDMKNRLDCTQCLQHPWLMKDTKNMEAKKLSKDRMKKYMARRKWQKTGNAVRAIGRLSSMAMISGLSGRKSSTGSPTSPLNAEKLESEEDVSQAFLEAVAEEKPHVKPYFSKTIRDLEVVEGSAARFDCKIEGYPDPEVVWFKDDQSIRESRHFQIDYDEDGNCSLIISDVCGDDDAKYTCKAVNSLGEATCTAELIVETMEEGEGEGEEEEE
Chain of Protein-tyrosine kinase 6 (Q13882 whole entry, looked up): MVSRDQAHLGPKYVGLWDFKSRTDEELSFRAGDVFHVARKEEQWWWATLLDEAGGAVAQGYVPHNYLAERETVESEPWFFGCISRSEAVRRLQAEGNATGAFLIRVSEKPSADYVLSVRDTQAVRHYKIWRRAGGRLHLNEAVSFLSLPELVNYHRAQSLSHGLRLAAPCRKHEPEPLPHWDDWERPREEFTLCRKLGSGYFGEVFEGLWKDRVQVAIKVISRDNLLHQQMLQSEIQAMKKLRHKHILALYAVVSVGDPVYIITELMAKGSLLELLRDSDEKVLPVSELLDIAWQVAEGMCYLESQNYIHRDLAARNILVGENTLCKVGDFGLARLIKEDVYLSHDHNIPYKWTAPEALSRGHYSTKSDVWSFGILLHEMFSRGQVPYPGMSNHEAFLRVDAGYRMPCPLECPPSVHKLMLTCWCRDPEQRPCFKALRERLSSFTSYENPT

Turning to `CNC(=O)Nc1ccc(-c2nc(N3CC4CCC(C3)O4)c3cnn(C4CCC5(CC4)OCCO5)c3n2)cc1`, the % of inhibition in assay [1] amounted to 8%.
`CNCCN1CCC(c2cc(CN(C)C(=O)c3cccc(Oc4ccccc4)c3)ccn2)CC1` had a % activity in [2] above 90%.
In turn, `CN(C)CCOc1ccc(-c2nc(-c3ccncc3)c(-c3ccc4c(c3)CC/C4=N\O)[nH]2)cc1` gave a % of control in [3] of 44%.
As for `N#Cc1cccc(-c2c[nH]c3ncnc(N4CCOCC4)c23)c1`, the % of control in assay [4] was found to be 9.8%. Also, the % of inhibition in assay [5] amounted to 57%.
On to `CN1Cc2nccc(-c3cn(C)nc3-c3ccc(F)cc3)c2C1=O`, for which the % of inhibition in assay [6] was determined as 4%.
Turning to `CC[C@@H]1[C@H](F)C(=O)N[C@@H]1COc1nccc2cc(C(N)=O)c(OC)cc12` [ZIMLOVISERTIB], the results for the % of inhibition in assay [7] and in assay [8] were -1.6% and -7%, respectively.
`CCN(CC)CCCCNc1ncc2cc(-c3cc(OC)cc(OC)c3)c(NC(=O)NC(C)(C)C)nc2n1` returned a % of control in assay [9] of 100%.
Turning to `CCC(=O)N1CCN(c2ccc(-n3c(=O)ccc4cnc5ccc(-c6cnc7ccccc7c6)cc5c43)cc2C(F)(F)F)CC1`, in assay [10], the % of control is 41%.
As to `O[C@H]1CC[C@H](Nc2ncc3nc(Nc4c(F)cc(F)cc4F)n([C@H]4CCOC4)c3n2)CC1`, the % of control in assay [11] is 96%.
On to `Cc1ccc(-c2ccc3c(ccc4sc5c(c43)NC[C@@H](C)NC5=O)n2)cn1`, for which the % of inhibition at SRSF protein kinase 1 was 34%.
With `COCC(=O)NC/C=C/c1ccc2ncnc(Nc3ccc(Oc4ccc(C)nc4)c(C)c3)c2c1` [CP-724714], the figures for the % of control in assay [12] and in [13] were 94% and 70%, respectively.
